What was measured:
[1] = concentrations below those used in this study (25 μM); cited from earlier work
[2] = system: AGS cells; experiment: Cytotoxicity assessment, flow cytometry with 7-AAD and FITC-Annexin V; format: cell-based, human; conditions: NMDI-1 between 5 and 50 μM, 48 h
Method: (§1) FIG. 11. Cytotoxicity assessment of NMDI-1 treatment. (A, B) Flow cytometry analysis of virus-negative Burkitt lymphoma BJAB (A) or AGS (B) cells treated with 5 to 100 μM NMDI-1 or DMSO (‘0 μM’ NMDI-1) for 48 h and stained with 7-AAD and FITC-Annexin V. Data are presented as mean percentage of live (orange, Annexin V^−/7-AAD^−), apoptotic (blue, […]), and necrotic (red, Annexin V^+/7-AAD^+) cells for three biological replicates. 1 μM staurosporine treatment served as positive control for apoptosis/necrosis induction.
(§2) AGS-EBV and HEK293T.rKSHV219 cells were seeded into 12-well plates and transfected with UPF1-specific or non-targeting control siRNAs for 24 to 120 h as indicated. As a positive control for reactivation, cells were treated with 2.5 mM NaB for 24 h. For microscopy, cells were incubated with Hoechst nucleic acid stain (1:2000, Invitrogen) in PBS for 5 min at RT, after which DAPI, as well as GFP or RFP were imaged using a fluorescence microscope (Omano). For flow cytometry analysis of GFP and RFP expression, cells were fixed in 4% paraformaldehyde in PBS and analyzed on an LSRFortessa (BD Biosciences). […] Data were analyzed using the Flowjo software (BD Biosciences).

[3] = system: EBV transcripts in AGS-EBV cells; experiment: qRT-PCR of EBV transcript abundance in TPA-treated AGS-EBV cells with or without NMDI-1; format: cell-based; conditions: 5 ng/mL TPA, 25 μM NMDI-1, 24 h
Excerpt: FIG. 3. NMD controls the abundance of the polycistronic EBV transactivator transcripts and Rta protein expression. (A) Schematic of the EBV transactivator locus and the three transcripts expressed from this locus. Dashed lines mark spliced introns; CDS, coding sequence; Rp, EBV BRLF1 promoter; Zp, EBV BZLF1 promoter; pA, 3′-polyadenylation site; green bar, location of the Northern blotting probe used in F and I. (B) qRT-PCR analysis of BRLF1 transcripts in HEK293T cells transfected with 0, 20, 40, or 60 nM UPF1-targeting siRNA for 24 h, followed by transfection of a plasmid encoding the complete EBV transactivator locus (left panel, orange) or the BRLF1 coding sequence (CDS) only (right panel, blue), together with pcDNA3-nlsGFP (internal control) for 48 h. Data was normalized to GFP transcript levels to control for differences in transfection efficiency and presented as fold abundance relative to cells without si.UPF1 (−). (C) qRT-PCR analysis of BZLF1 transcripts in HEK293T cells transfected with increasing amounts of si.UPF1 for 24 has in (B), followed by transfection for 48 h with a plasmid encoding the EBV BZLF1 locus (left panel, orange) or the BZLF1 CDS (right panel, blue), together with pcDNA3-nlsGFP (internal control). […] See 10E Fig for quantification of effects. […] See S6F Fig for quantification of effects. […] See S6G Fig for quantification of effects. […]

[4] = system: KSHV; experiment: KSHV reactivation: qRT-PCR of KSHV lytic transcripts after NMDI-1 treatment; format: cell-based; conditions: 25 μM NMDI-1, 24 to 120 h
Method: (§3) FIG. 4. Small-molecule NMD inhibitor NMDI-1 is a potent inducer of EBV and KSHV reactivation. (A-C) qRT-PCR analysis of EBV BZLF1, BRLF1, BMRF1, BLLF1b, and/or BcLF1 transcripts in EBV^+ AKBM (A), AGS-EBV (B), or LCL (C) cells treated with 25 μM NMDI-1 for 12 to 120 h, presented as fold expression relative to Mock-treated samples. (D-G) qRT-PCR analysis of Orf26, Orf50, Orf57, or Orf74 transcripts in KSHV^+ iSLK.rKSHV219 (D), HEK293T.rKSHV219 (E), BC3 (F), and BCBL1 (G) cells treated with 25 μM NMDI-1 for 24 to 120 h, presented as fold expression relative to Mock-treated samples. Data are representative of at least two (A, C) or three (B, D, E, F, G) independent experiments and presented as mean±SD of three biological replicates; ns, p>0.05, * p≤0.05, ** p≤0.01, *** p≤0.001.
(§4) Total RNA was extracted from cells using the E.Z.N.A. HP Total RNA Isolation Kit (OMEGA Bio-Tek) according to the manufacturer's instructions. Reverse transcription and qRT—PCR were performed using equal amounts (50-500 ng) of the purified RNA and the SuperScript III Platinum One-Step qRT-PCR kit with ROX (Invitrogen) on a 7500 Fast Real-Time PCR Machine (Applied Biosystems). Premixed master mixes of TaqMan primers and probes for the detection of human transcripts were purchased from Applied Biosystems (18S) or IDT (GAPDH, UPF1, UPF2, UPF3a, UPF3b, SMG1, SMG5, SMG6, SMG7, STAU1, STAU2, GADD45B, PDRG1, RPL32, HPRT1, MAP3K14). […] Abundance of target genes was calculated by normalizing for cellular 18S or GAPDH using the Comparative CT (ΔΔCt) method. […]

[5] = system: EBV; experiment: EBV reactivation: qRT-PCR of EBV lytic gene expression after NMDI-1 treatment; format: cell-based; conditions: 25 μM NMDI-1, qRT-PCR, relative to Mock
Method: as §3, §4

[6] = system: BJAB cells; experiment: Cytotoxicity assessment, flow cytometry with 7-AAD and FITC-Annexin V; format: cell-based; conditions: virus-negative BJAB cells, NMDI-1 between 5 and 50 μM, 48 h
Method: as §1, §2

Cc1c2ccnc(Cl)c2c(C)c2c1[nH]c1ncccc12 [NMDI-1]
toxicity in in vivo studies [1]: without apparent toxicity
cell viability [2]: did not or only minimally affect cell viability
BRLF1 transcript abundance compared to the mock-treated control [3]: significant increase in BRLF1 transcript abundance
levels of other EBV transcripts (BNRF1, BcLF1, BLLF1) [3]: not significantly affected
KSHV lytic transcripts Orf50, Orf26, Orf57 and/or Orf74 ([4]; KSHV+ BC3 PEL cells): induced potent expression of the KSHV lytic transcripts
KSHV lytic transcripts Orf50, Orf26, Orf57 and/or Orf74 ([4]; KSHV+ BCBL1 PEL cells): induced potent expression of the KSHV lytic transcripts
KSHV lytic transcripts Orf50, Orf26, Orf57 and/or Orf74 ([4]; KSHV+ HEK293T.rKSHV219 cells): induced potent expression of the KSHV lytic transcripts
KSHV lytic transcripts Orf50, Orf26, Orf57 and/or Orf74 ([4]; KSHV+ iSLK.rKSHV219 cells): induced potent expression of the KSHV lytic transcripts
EBV lytic gene expression ([5]; AGS-EBV cells): potent induction of lytic gene expression
EBV lytic gene expression (BZLF1, BMRF1, BLLF1, BcLF1) ([5]; EBV+ AKBM cells): striking induction of EBV lytic gene expression
EBV lytic gene expression ([5]; EBV-transformed LCL cells from healthy-donor primary B cells): potent induction of lytic gene expression
cell viability [6]: did not or only minimally affect cell viability

Reference: patent publication US20240050426A1, “TREATING VIRAL INFECTION WITH NMD INHIBITORS” (The Cleveland Clinic Foundation, priority 2021, published 2024)
